According to patent US7951232B2, “Surface coating compositions and methods” (Elevance Renewable Sciences, Inc., priority 2006, dated 2011):
Where two headings read alike, the source gives them in different places.

How the values were obtained:
Format in all cases: cell-based
[1] = system: Pseudomonas aeruginosa ATCC 15442; experiment: MIC and MBC determination in Mueller-Hinton Broth; settings: no-growth tubes subcultured on TSA, 37±2° C., 20-24 hours
Description: Efficacy of 9-decenoic acid and the methyl ester of 9-decenoic acid against Pseudomonas aeruginosa ATCC 15442, Escherichia coli 0157:H7 ATCC 43895 and Candida albicans ATCC 10231 was measured through the determination of the minimum inhibitory concentration (MIC) and minimum bacteriocidal concentration (MBC) using the procedures in the Federal Register, June 1994 and the present NCCLS M11-A4 protocol.
Stock cultures of each organism were transferred onto Mueller-Hinton Agar (MHA) plates and incubated for 24±2 hours at 37±2° C. On the day of the test, the top of at least three to five well-isolated colonies were transferred via wire loop to a tube containing 4 to 5 ml of Trypticase Soy Broth (TSB). The TSB culture was incubated for 2 to 6 hours and turbidity was adjusted with sterile saline to achieve the turbidity of the 0.5 McFarland Standard.
The concentrated 9-decenoic acid was diluted 1:40 in Mueller-Hinton Broth (MHB) to yield a 2.5% stock solution. The test solution of the methyl ester of 9-decenoic acid was formulated in the same manner. For each organism, 12 dilutions of the 9-decenoic acid and the methyl ester of 9-decenoic acid in MHB were prepared ranging from 0.2500 to 0.0005%. A 2-ml aliquot of appropriately diluted 9-decenoic acid or the methyl ester of 9-decenoic acid solution was placed in each tube. Each tube was inoculated with 0.05 ml of a 1:10 dilution of one challenge organism. Tubes were incubated at 37±2° C. for 20-24 hours and observed for growth or no growth. […] Controls were run for sterility, viability and organism confirmation. It was determined that all cultures were viable and pure.
The MBC was defined as the concentration of 9-decenoic acid or the methyl ester of 9-decenoic acid that completely eradicated viable organisms from the test system.

[2] = system: Aspergillus flavus, ATCC 9170; experiment: Preservative effectiveness, USP <51>
Description: (§1) The effectiveness of 9-decenoic acid on Aspergillus and Penecillium which occasionally result in in-can spoilage of paint was determined using the protocol on preservative effectiveness found in the United States Pharmacopeia (USP), 25th Edition, 2002, USP <51>.
(§2) Stock cultures of the fungi Aspergillus flavus, ATCC 9170 and Penecillium verrucosum, ATCC 18381 were cultured onto Sabouraud Dextrose Agar (SDA) and incubated at 25-30° C. for at least 1 week. The spores were washed form the agar surface with sterile saline, filtered through sterile glass wool, enumerated and stored under refrigeration for no longer than thirty days. On the day of the test, the suspension was diluted to approximately 10^8 CFU/ml.
(§3) The 9-decenoic acid was diluted in the same manner as previously described to achieve, 0.25, 0.125, 0.0625, 0.03, 0.015, 0.0078 and 0.0039% and dispensed in 20 ml aliquots in sterile test tubes. For each concentration tested, a 0.1 ml aliquot of each inoculum was added to a final concentration of 10^5 to 10^6 CFU/ml. The tubes were incubated at room temperature and sampled on days 0, 1, 2, 4, 7, 14, 21 and 28.
(§4) At each sample point, 1.0 ml aliquots were withdrawn, serially diluted and plated in triplicate on SDA. The plates were incubated at 25-30° C. for 3-7 days. The colonies were counted and the average CFU/ml was calculated. Controls for purity, viability and sterility were performed as described previously.
(§5) According to the US Pharmacopoeia, a test compound is an effective preservative if the concentrations of viable fungi remain at or below the initial concentrations during the first fourteen days and after 28 days. According to this definition, 9-decenoic acid is an effective preservative against Aspergillus flavus and Penecillium verrucosum at concentrations as low at 0.078%. […] For A. flavus, 9-decenoic acid was fungicidal at 0.015% after 21 days and at day 0 at 0.03%.

[3] = system: Penecillium verrucosum, ATCC 18381; experiment: Preservative effectiveness, USP <51>
Description: as §1, §2, §3, §4, §5

For `C=CCCCCCCCC(=O)O` [9-decenoic acid], the MBC [1] was 0.1250%, the “Log reduction of organisms after exposure” value (“Log reduction of organisms” for short) ([2]; 0.0078%, exposure 0 days) was 0.2 log and the “Log reduction of organisms” value ([2]; 0.0078%, exposure 1 day) was 0.3 log. The “Log reduction of organisms” value ([2]; 0.0078%, exposure 2 days) was 0.2 log, the “Log reduction of organisms” value ([2]; 0.0078%, exposure 4 days) was 0.4 log and the “Log reduction of organisms” value ([2]; 0.0078%, exposure 7 days) was 0.4 log. The “Log reduction of organisms” value ([2]; 0.0078%, exposure 14 days) was 0.4 log, the “Log reduction of organisms” value ([2]; 0.0078%, exposure 21 days) was 0.8 log and the “Log reduction of organisms” value ([2]; 0.0078%, exposure 28 days) was 0.8 log. The “Log reduction of organisms” value ([2]; 0.015%, exposure 0 days) was 1.2 log, the “Log reduction of organisms” value ([2]; 0.015%, exposure 1 day) was 2.9 log and the “Log reduction of organisms” value ([2]; 0.015%, exposure 2 days) was 3.1 log. For the same molecule, the “Log reduction of organisms” value ([2]; 0.015%, exposure 4 days) was 3.9 log, the “Log reduction of organisms” value ([2]; 0.015%, exposure 7 days) was 3.9 log and the “Log reduction of organisms” value ([2]; 0.015%, exposure 14 days) was 4.8 log. For the same molecule, the “Log reduction of organisms” value ([2]; 0.015%, exposure 21 days) was 5.1 log, the “Log reduction of organisms” value ([2]; 0.015%, exposure 28 days) was 4.8 log and the “Log reduction of organisms” value ([2]; 0.03%, exposure 0 days) was 5.1 log. For the same molecule, the “Log reduction of organisms” value ([2]; 0.03%, exposure 1 day) was 5.1 log, the “Log reduction of organisms” value ([2]; 0.03%, exposure 2 days) was 5.1 log and the “Log reduction of organisms” value ([2]; 0.03%, exposure 4 days) was 5.1 log. For the same molecule, the “Log reduction of organisms” value ([2]; 0.03%, exposure 7 days) was 5.1 log, the “Log reduction of organisms” value ([2]; 0.03%, exposure 14 days) was 5.1 log and the “Log reduction of organisms” value ([2]; 0.03%, exposure 21 days) was 5.1 log. For the same molecule, the “Log reduction of organisms” value ([2]; 0.03%, exposure 28 days) was 5.1 log, the “Log reduction of organisms” value ([2]; 0.0625%, exposure 0 days) was 5.1 log and the “Log reduction of organisms” value ([2]; 0.0625%, exposure 1 day) was 5.1 log. The “Log reduction of organisms” value ([2]; 0.0625%, exposure 2 days) was 5.1 log, the “Log reduction of organisms” value ([2]; 0.0625%, exposure 4 days) was 5.1 log and the “Log reduction of organisms” value ([2]; 0.0625%, exposure 7 days) was 5.1 log. The “Log reduction of organisms” value ([2]; 0.0625%, exposure 14 days) was 5.1 log, the “Log reduction of organisms” value ([2]; 0.0625%, exposure 21 days) was 5.1 log and the “Log reduction of organisms” value ([2]; 0.0625%, exposure 28 days) was 5.1 log. For the same molecule, the “time after which fungicidal” value ([2]; at 0.015%) was 21 days, the “time after which fungicidal” value ([2]; at 0.03%) was 0 days and the “time after which fungicidal” value [3] was 2 days. For the same molecule, the “Log reduction of organisms” value ([3]; 0.0078%, exposure 0 days) was 0 log, the “Log reduction of organisms” value ([3]; 0.0078%, exposure 1 day) was 0.1 log and the “Log reduction of organisms” value ([3]; 0.0078%, exposure 2 days) was 0.8 log. For the same molecule, the “Log reduction of organisms” value ([3]; 0.0078%, exposure 4 days) was 0.8 log, the “Log reduction of organisms” value ([3]; 0.0078%, exposure 7 days) was 0.8 log and the “Log reduction of organisms” value ([3]; 0.0078%, exposure 14 days) was 0.8 log. For the same molecule, the “Log reduction of organisms” value ([3]; 0.0078%, exposure 21 days) was 1.8 log, the “Log reduction of organisms” value ([3]; 0.0078%, exposure 28 days) was 1.9 log and the “Log reduction of organisms” value ([3]; 0.015%, exposure 0 days) was 0.1 log. For the same molecule, the “Log reduction of organisms” value ([3]; 0.015%, exposure 1 day) was 3.0 log, the “Log reduction of organisms” value ([3]; 0.015%, exposure 2 days) was 5.1 log and the “Log reduction of organisms” value ([3]; 0.015%, exposure 4 days) was 5.1 log. For the same molecule, the “Log reduction of organisms” value ([3]; 0.015%, exposure 7 days) was 5.1 log, the “Log reduction of organisms” value ([3]; 0.015%, exposure 14 days) was 5.1 log and the “Log reduction of organisms” value ([3]; 0.015%, exposure 21 days) was 5.1 log. The “Log reduction of organisms” value ([3]; 0.015%, exposure 28 days) was 5.1 log, the “Log reduction of organisms” value ([3]; 0.03%, exposure 0 days) was 3.4 log and the “Log reduction of organisms” value ([3]; 0.03%, exposure 1 day) was 5.1 log. For the same molecule, the “Log reduction of organisms” value ([3]; 0.03%, exposure 2 days) was 5.1 log, the “Log reduction of organisms” value ([3]; 0.03%, exposure 4 days) was 5.1 log and the “Log reduction of organisms” value ([3]; 0.03%, exposure 7 days) was 5.1 log. For the same molecule, the “Log reduction of organisms” value ([3]; 0.03%, exposure 14 days) was 5.1 log, the “Log reduction of organisms” value ([3]; 0.03%, exposure 21 days) was 5.1 log and the “Log reduction of organisms” value ([3]; 0.03%, exposure 28 days) was 5.1 log. For the same molecule, the “Log reduction of organisms” value ([3]; 0.0625%, exposure 0 days) was 4.3 log, the “Log reduction of organisms” value ([3]; 0.0625%, exposure 1 day) was 5.1 log and the “Log reduction of organisms” value ([3]; 0.0625%, exposure 2 days) was 5.1 log. The “Log reduction of organisms” value ([3]; 0.0625%, exposure 4 days) was 5.1 log, the “Log reduction of organisms” value ([3]; 0.0625%, exposure 7 days) was 5.1 log and the “Log reduction of organisms” value ([3]; 0.0625%, exposure 14 days) was 5.1 log. For the same molecule, the “Log reduction of organisms” value ([3]; 0.0625%, exposure 21 days) was 5.1 log, the “Log reduction of organisms” value ([3]; 0.0625%, exposure 28 days) was 5.1 log and the “time after which fungicidal” value ([3]; at 0.03%) was 1 days.
